Data reported in patent publication US6716809B1, “Mage-A3 peptides presented by HLA class molecules” (priority 1997, dated 2004).

Columns and labels:
Format in all cases: cell-based, human
[1] = test system: CD4+ clone 436/B6.37 (B6/37); test: IFN-γ/TNF production by CD4+ clone B6/37 (clone 37) stimulated with peptide- or protein-pulsed EBV-B cells; conditions: for TNF-α and IFN-γ production by clone B6/37: more physiologic or lower peptide concentrations
Description: The microcultures that contained proliferating CD4^+ T cells were assessed around 35 days after the start of the culture for their capacity to produce TNF and/or IFN-γ when stimulated with autologous EBV-B cells pulsed with the His-MAGE-A3 protein. Autologous EBV-B cells (500,000/ml) were incubated for 18-20 hours at 37° C. in the presence of 20 μg/ml of His-MAGE-A3 protein, or Ovalbumin (Sigma) as a negative control. EBV-B cells referred to herein are B cells which were immortalized with Epstein Barr virus. The EBV-B cells were prepared according to art-standard procedures. Protein-pulsed EBV-B cells were washed and added at 5,000 per round-bottomed microwell to 2,500 CD4^+ T lymphocytes in 150 μl of complete Iscove's medium supplemented with L-glutamine, L-arginine, L-asparagine, 10% human serum and IL-2 (25 U/ml). After 18-20 hours, supernatants were harvested and assessed for TNF content by testing the cytotoxic effect of the supernatants on TNF-sensitive WEHI 164 clone 13 cells as previously described (Espevik and Nissen-Meyer, J. Immunol. Methods 95:99-105, 1986) in a MTT colorimetric assay as previously described (Hansen et al., J. Immunol. Methods 119:203-210, 1989; Traversari et al., Immunogenetics 35:145-152, 1992). IFN-γ production was measured using an ELISA assay developed in our laboratory (see below) with reagents from Medgenix Diagnostics-Biosource (Fleurus, Belgium). Inhibition with mAbs W6/32 (anti-HLA class I) or 2B6 (anti-HLA-DR) was performed by addition of a 1/20 dilution of ascites during the experiment. Cytokine secretion in response to autologous EBV-B cells pulsed with MAGE-A3 was considered significant if it was at least twofold above the background response of T cells to EBV-B cells pulsed with ovalbumin, and if it exceeded 500 pg of IFN-γ or 50 pg/ml of TNF per ml.
In order to identify the MAGE-A3 peptides recognized by these CD4^+ clones, 16 amino acid peptides, corresponding to parts of the MAGE-A3 protein sequence were synthesized, loaded on the autologous EBV-B cells and tested for recognition (FIGS. 4 and 5). Peptides were synthesized using F-moc for transient NH2-terminal protection and were characterized using mass spectrometry. […] Lyophilized synthetic peptides were dissolved in DMSO (Merck) and used at a final concentration of 500 μM, 50 μM or 5 μg/ml. EBV-B cells (5,000 per round-bottomed microwell) were incubated 2 hours at 37° C., 8% CO2 in the presence of the different peptides, the indicated concentrations representing the peptide concentration during the incubation step. CD4^+ clones were then added at 2,500 cells per well. Assay medium was Iscove's medium supplemented with L-glutamine, L-arginine, L-asparagine, 10% human serum and IL-2 (25 U/ml). After 18-20 hours, supernatants were harvested and assessed for TNF-α and/or IFN-γ secretion. IFN-γ production was measured using an ELISA test (20-4000 pg/ml) developed in the laboratory with reagents from Medgenix Diagnostics-Biosource (Fleurus, Belgium).
To further define the HLA-restriction element utilized by clone B6/37, additional EBV-B cell lines were used for peptide presentation as described above (FIG. 7).
Unlike HLA-class I-restricted peptides, class II-restricted peptides usually vary in length and tolerate extensions at both the amino and carboxy termini, because they are not fixed by their ends in the groove. It is therefore difficult to define precisely the length of the antigenic peptide. Therefore a large number of MAGE-A3 peptides were tested at different concentrations (Tables IV and V). […] 2500 cells of clone 37 were then cocultured for 20 h in round-bottomed microwells with 5000 peptide-pulsed cells. IFN-γ released in the supernatant of the cocultures was measured in an ELISA assay. The experiments were performed in triplicate.

[2] = test system: CD4+ clone 436/B6.34 (B6/34); test: TNF/IFN-γ production by CD4+ clone B6/34 stimulated with peptide-pulsed EBV-B cells; conditions: for TNF-α and IFN-γ production by clone B6/34: more physiologic or lower peptide concentrations
Description: In order to identify the MAGE-A3 peptides recognized by these CD4^+ clones, 16 amino acid peptides, corresponding to parts of the MAGE-A3 protein sequence were synthesized, loaded on the autologous EBV-B cells and tested for recognition (FIGS. 4 and 5). Peptides were synthesized using F-moc for transient NH2-terminal protection and were characterized using mass spectrometry. All peptides were >80% pure as indicated by analytical HPLC. Lyophilized synthetic peptides were dissolved in DMSO (Merck) and used at a final concentration of 500 μM, 50 μM or 5 μg/ml. EBV-B cells (5,000 per round-bottomed microwell) were incubated 2 hours at 37° C., 8% CO2 in the presence of the different peptides, the indicated concentrations representing the peptide concentration during the incubation step. CD4^+ clones were then added at 2,500 cells per well. Assay medium was Iscove's medium supplemented with L-glutamine, L-arginine, L-asparagine, 10% human serum and IL-2 (25 U/ml). After 18-20 hours, supernatants were harvested and assessed for TNF-α and/or IFN-γ secretion. IFN-γ production was measured using an ELISA test (20-4000 pg/ml) developed in the laboratory with reagents from Medgenix Diagnostics-Biosource (Fleurus, Belgium).

B6 clones = test: Proliferation of B6 clones induced by peptide-pulsed autologous EBV-B cells; conditions: autologous EBV-B cells pulsed with peptide (FIG. 6)
[3] = EBV-B cell line BM16, DR13 negative
[4] = EBV-B cell line BOB, DR13 negative
[5] = EBV-B cell line BOLETH, DR13 negative
[6] = EBV-B cell line LB1118, DR13 positive
[7] = EBV-B cell line LB1555, DR13 positive
[8] = EBV-B cell line LB1622, DR13 positive
[9] = EBV-B cell line LKT3, DR13 negative
[10] = EBV-B cell line MZ2, DR13 positive
[11] = EBV-B cell line OLGA, DR13 negative
[12] = EBV-B cell line OMW, DR13 positive
[13] = EBV-B cell line RML, DR13 negative
[14] = EBV-B cell line RSH, DR13 negative
[15] = EBV-B cell line TAB089, DR13 negative
[16] = EBV-B cell line TISI, DR13 negative
[17] = EBV-B cell line VAF, DR13 negative
[18] = EBV-B cell line VET, DR13 negative
[19] = peptide at 500 μM (non-physiologic), autologous EBV-B cells

Row | Substance | activation of clone B6/37 by 16 amino acid peptides [1] | IFN-γ production by clone B6/37 stimulated by peptide [1, 3] [pg/mL] | IFN-γ production by clone B6/37 stimulated by peptide [1, 4] [pg/mL] | IFN-γ production by clone B6/37 stimulated by peptide [1, 5] [pg/mL] | IFN-γ production by clone B6/37 stimulated by peptide [1, 6] [pg/mL] | IFN-γ production by clone B6/37 stimulated by peptide [1, 7] [pg/mL] | IFN-γ production by clone B6/37 stimulated by peptide [1, 8] [pg/mL] | IFN-γ production by clone B6/37 stimulated by peptide [1, 9] [pg/mL] | IFN-γ production by clone B6/37 stimulated by peptide [1, 10] [pg/mL] | IFN-γ production by clone B6/37 stimulated by peptide [1, 11] [pg/mL] | IFN-γ production by clone B6/37 stimulated by peptide [1, 12] [pg/mL] | IFN-γ production by clone B6/37 stimulated by peptide [1, 13] [pg/mL] | IFN-γ production by clone B6/37 stimulated by peptide [1, 14] [pg/mL] | IFN-γ production by clone B6/37 stimulated by peptide [1, 15] [pg/mL] | IFN-γ production by clone B6/37 stimulated by peptide [1, 16] [pg/mL] | IFN-γ production by clone B6/37 stimulated by peptide [1, 17] [pg/mL] | IFN-γ production by clone B6/37 stimulated by peptide [1, 18] [pg/mL] | TNF-α and IFN-γ production by clone B6/37 [1] | activation of clone B6/34 by 16 amino acid peptides [2] | TNF-α and IFN-γ production by clone B6/34 [2] | other results
1 | RKVAELVHFLLLKYRA (listed as Homo sapiens) [MAGE-A3111-126] | stimulated specifically | 99 | 128 | 77 | 3761 | >4000 | 1731 | 6 | 3429 | 117 | >4000 | 134 | 140 | 52 | 119 | 62 | 105 | stimulated specifically | stimulated specifically | stimulated specifically | proliferation of the B6 clones (B6 clones): able to induce the proliferation
2 | ELVHFLLLKYRAREPV (listed as Homo sapiens) [MAGE-A3115-130] | stimulated specifically | 120 | 101 | 67 | 3909 | >4000 | 1349 | 27 | 3096 | 68 | >4000 | 129 | 87 | 55 | 179 | 178 | 135 | stimulated specifically | stimulated specifically | stimulated specifically | proliferation of the B6 clones (B6 clones): able to induce the proliferation
3 | MAGE-A3159-174: 16 amino acid synthetic peptide corresponding to residues 159-174 of the MAGE-A3 protein (QLVFGIELMEVDPIGH; listed as Homo sapiens) | – | – | – | – | – | – | – | – | – | – | – | – | – | – | – | – | – | – | – | – | activation of clone B6/37 ([1]; peptide at 50 μM): not effective; activation of clone B6/37 [1, 19]: induced activation; activation of clone B6/34 ([2]; peptide at 50 μM): not effective; activation of clone B6/34 [2, 19]: induced activation
